Assay results as given in patent publication US8029764B2, “Methods for detection of colorectal cancer” (The Johns Hopkins University, priority 2001, dated 2011).

Test system: colorectal tissue transcripts
Assay: SAGE of normal, adenoma and cancer colorectal tissue (transcript tag counts)
Parameters: species or system human
Conditions: for AD1 (SAGE tag count): adenoma library 1; for AD2 (SAGE tag count): adenoma library 2; for CA1 (SAGE tag count): cancer library 1; for CA2 (SAGE tag count): cancer library 2; for NC1 (SAGE tag count): normal colorectal tissue library 1; for NC2 (SAGE tag count): normal colorectal tissue library 2
In short: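 Tag counts reflect transcript abundance, each mRNA represented by a 15-base tag near its 3′ end. Excluding MHC tags, linkers and duplicate ditags, libraries were compared statistically: two each of normal epithelium, FAP-derived adenomas (>70% neoplastic) and carcinomas.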

Row | Sequence | AD1 (SAGE tag count) | AD2 (SAGE tag count) | CA1 (SAGE tag count) | CA2 (SAGE tag count) | NC1 (SAGE tag count) | NC2 (SAGE tag count)
1 | TAAGGCCTTT (chemistry not fully specified; the letters are possibly those of the target site) | 1 | 0 | 0 | 1 | 6 | 9
2 | TAATCCCAGC (chemistry not fully specified) | 8 | 7 | 16 | 13 | 37 | 33
3 | TAATTTGCAT (chemistry not fully specified) | 1 | 1 | 2 | 0 | 25 | 2
4 | TACGGTGTGG (chemistry not fully specified) | 2 | 2 | 1 | 0 | 7 | 13
5 | TACTCGGCCA (chemistry not fully specified) | 0 | 0 | 1 | 0 | 10 | 5
6 | TACTGTGGAT (chemistry not fully specified) | 0 | 2 | 2 | 1 | 4 | 11
7 | TAGACTAGCA (chemistry not fully specified) | 6 | 6 | 22 | 4 | 31 | 27
8 | TAGGATGGGG (chemistry not fully specified) | 4 | 7 | 6 | 1 | 24 | 30
9 | TATGATGAGC (chemistry not fully specified) | 2 | 2 | 1 | 5 | 13 | 21
10 | TCACAGTGCC (chemistry not fully specified) | 3 | 1 | 3 | 4 | 26 | 7
11 | TCACCGGTCA (chemistry not fully specified) | 10 | 10 | 5 | 6 | 118 | 75
12 | TCAGAGCGCT (chemistry not fully specified) | 0 | 7 | 0 | 1 | 5 | 21
13 | TCAGCTGCAA (chemistry not fully specified) | 0 | 0 | 9 | 3 | 56 | 16
14 | TCGGAGCTGT (chemistry not fully specified) | 9 | 6 | 3 | 0 | 21 | 20
15 | TCTGAATTAT (chemistry not fully specified) | 0 | 0 | 1 | 0 | 24 | 16
16 | TGACTAATTG (chemistry not fully specified) | 2 | 0 | 0 | 3 | 7 | 9
17 | TGAGTGACAG (chemistry not fully specified) | 0 | 6 | 3 | 7 | 9 | 68
18 | TGATCTCTGT (chemistry not fully specified) | 1 | 0 | 1 | 1 | 6 | 7
19 | TGCAGCACGA (chemistry not fully specified) | 5 | 30 | 24 | 16 | 6 | 185
20 | TGCAGCGCCT (chemistry not fully specified; the letters are possibly those of the target site) | 1 | 1 | 1 | 1 | 16 | 9
21 | TGCCGCCCGC (chemistry not fully specified) | 2 | 2 | 1 | 0 | 14 | 5
22 | TGCTCCTACC (chemistry not fully specified; the letters are possibly those of the target site) | 70 | 22 | 17 | 22 | 140 | 113
23 | TGGCCATCTG (chemistry not fully specified) | 8 | 7 | 3 | 4 | 30 | 24
24 | TGGCGCGTGT (chemistry not fully specified) | 0 | 0 | 9 | 5 | 25 | 8
25 | TGGCTACTTA (chemistry not fully specified) | 1 | 0 | 1 | 2 | 6 | 9
26 | TGGGGAGAGG (chemistry not fully specified) | 20 | 7 | 3 | 7 | 43 | 18
27 | TTAACCCCTC (chemistry not fully specified) | 5 | 9 | 1 | 5 | 34 | 14
28 | TTATGGTGTG (chemistry not fully specified) | 0 | 0 | 0 | 0 | 11 | 17
29 | TTCCACTAAC (chemistry not fully specified) | 7 | 4 | 5 | 5 | 29 | 9
